The record followed here is the supplement of paper PMC10307832.

Holding throughout (test): relative viability (nuclei count vs DMSO), 5 days (fraction); higher = more cells survive
Compound in the assay “XMD13-2 + Linsitinib”: C1CC1C(=O)NC2=NNC3=C2C=CC(=C3)C4=CC(=CC=C4)C(=O)NC5CC5 [XMD13-2] + C[C@]1(O)C[C@@H](c2nc(-c3ccc4ccc(-c5ccccc5)nc4c3)c3c(N)nccn32)C1 [Linsitinib] (partner 1 µM)
In a few lines: (§1)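 Cells from lung cancer lines were seeded into 1536-well plates and, one day later, dosed by pin tool. Treatments were either a single drug or a fixed dose of an anchor drug with five library-drug doses (not always all listed) in √10 steps. After 5 days, nuclei were stained in a one-step fixation (final 0.05% Triton X-100, 1% formaldehyde, 1 ug/ml Hoechst) and counted on 4× images, and relative viability is the treated-to-vehicle nuclei ratio, as the median of duplicate plates.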

Compound in the assay “XMD13-2 + AZD7762”: C1CC1C(=O)NC2=NNC3=C2C=CC(=C3)C4=CC(=CC=C4)C(=O)NC5CC5 [XMD13-2] + NC(=O)Nc1cc(-c2cccc(F)c2)sc1C(=O)N[C@H]1CCCNC1 [AZD7762] (partner 0.2 µM)
In a few lines: as §1

Compound in the assay “ALW-II-49-7 + Trametinib”: Cc1ccc(C(=O)Nc2cccc(C(F)(F)F)c2)cc1Nc1cncc(C(N)=O)c1 [ALW-II-49-7] + CC(=O)Nc1cccc(-n2c(=O)n(C3CC3)c(=O)c3c(Nc4ccc(I)cc4F)n(C)c(=O)c(C)c32)c1 [Trametinib] (partner 0.02 µM)
The method, boiled down: as §1

Compound in the assay “Dasatinib + Navitoclax”: Cc1nc(Nc2ncc(C(=O)Nc3c(C)cccc3Cl)s2)cc(N2CCN(CCO)CC2)n1 [Dasatinib] + CC1(C)CCC(c2ccc(Cl)cc2)=C(CN2CCN(c3ccc(C(=O)NS(=O)(=O)c4ccc(N[C@H](CCN5CCOCC5)CSc5ccccc5)c(S(=O)(=O)C(F)(F)F)c4)cc3)CC2)C1 [Navitoclax] (partner 0.5 µM)
The method, boiled down: as §1

Turning to 201T, the relative viability with XMD13-2 + Linsitinib (first compound 0.05 µM) came out at 1.06; in the assay with XMD13-2 + Linsitinib (first compound 0.1581 µM), 1.08; with XMD13-2 + Linsitinib (first compound 0.5 µM), 1.01; in the assay with XMD13-2 + Linsitinib (first compound 1.581 µM), 0.957; with XMD13-2 + Linsitinib (first compound 5 µM) it was 0.908; with XMD13-2 + AZD7762 (first compound 0.05 µM), 0.634. Further, the relative viability is 0.707 in the assay with XMD13-2 + AZD7762 (first compound 0.1581 µM); 0.584 with XMD13-2 + AZD7762 (first compound 0.5 µM); 0.616 in the assay with XMD13-2 + AZD7762 (first compound 1.581 µM); 0.61 in the assay with XMD13-2 + AZD7762 (first compound 5 µM); 0.718 with ALW-II-49-7 + Trametinib (first compound 0.08 µM); 0.791 in the assay with ALW-II-49-7 + Trametinib (first compound 0.253 µM). In addition, the relative viability in the assay with ALW-II-49-7 + Trametinib (first compound 0.8 µM) amounted to 0.691; in the assay with ALW-II-49-7 + Trametinib (first compound 2.53 µM), 0.715; in the assay with ALW-II-49-7 + Trametinib (first compound 8 µM) it was 0.777; in the assay with Dasatinib + Navitoclax (first compound 0.005 µM), 1.15; with Dasatinib + Navitoclax (first compound 0.01581 µM), 1.2; with Dasatinib + Navitoclax (first compound 0.05 µM), 1.13. Besides, the values for the relative viability with Dasatinib + Navitoclax (first compound 0.1581 µM) and with Dasatinib + Navitoclax (first compound 0.5 µM) were 1.01 and 0.65, respectively.

On to NCI-H460, for which the relative viability was determined as 1.01 with XMD13-2 + Linsitinib (first compound 0.05 µM); 0.953 with XMD13-2 + Linsitinib (first compound 0.1581 µM); 0.973 with XMD13-2 + Linsitinib (first compound 0.5 µM); 0.72 with XMD13-2 + Linsitinib (first compound 1.581 µM); 0.997 with XMD13-2 + Linsitinib (first compound 5 µM); 0.708 with XMD13-2 + AZD7762 (first compound 0.05 µM). For the same cell line, the relative viability came to 0.751 with XMD13-2 + AZD7762 (first compound 0.1581 µM); 0.633 in the assay with XMD13-2 + AZD7762 (first compound 0.5 µM); 0.66 with XMD13-2 + AZD7762 (first compound 1.581 µM); 0.683 with XMD13-2 + AZD7762 (first compound 5 µM); 0.133 with ALW-II-49-7 + Trametinib (first compound 0.08 µM); 0.17 with ALW-II-49-7 + Trametinib (first compound 0.253 µM). In addition, the relative viability with ALW-II-49-7 + Trametinib (first compound 0.8 µM) is 0.142; with ALW-II-49-7 + Trametinib (first compound 2.53 µM), 0.118; with ALW-II-49-7 + Trametinib (first compound 8 µM) it was 0.101; in the assay with Dasatinib + Navitoclax (first compound 0.005 µM), 0.828; in the assay with Dasatinib + Navitoclax (first compound 0.01581 µM), 0.912; with Dasatinib + Navitoclax (first compound 0.05 µM), 0.815. The values for the relative viability with Dasatinib + Navitoclax (first compound 0.1581 µM) and in the assay with Dasatinib + Navitoclax (first compound 0.5 µM) were 0.563 and 0.217, respectively.

In the case of NCI-H596, the relative viability with XMD13-2 + Linsitinib (first compound 0.05 µM) worked out at 1.12; with XMD13-2 + Linsitinib (first compound 0.1581 µM), 1.13; with XMD13-2 + Linsitinib (first compound 0.5 µM) it was 1.01; with XMD13-2 + Linsitinib (first compound 1.581 µM) it was 1.05; with XMD13-2 + Linsitinib (first compound 5 µM), 1.22; with XMD13-2 + AZD7762 (first compound 0.05 µM) it was 1.14. The relative viability with XMD13-2 + AZD7762 (first compound 0.1581 µM) amounted to 0.945; in the assay with XMD13-2 + AZD7762 (first compound 0.5 µM), 1.09; with XMD13-2 + AZD7762 (first compound 1.581 µM), 1.18; in the assay with XMD13-2 + AZD7762 (first compound 5 µM), 1.2; with ALW-II-49-7 + Trametinib (first compound 0.08 µM), 0.684; with ALW-II-49-7 + Trametinib (first compound 0.253 µM), 0.786. Besides, the relative viability in the assay with ALW-II-49-7 + Trametinib (first compound 0.8 µM) stood at 0.769; with ALW-II-49-7 + Trametinib (first compound 2.53 µM), 0.791; with ALW-II-49-7 + Trametinib (first compound 8 µM) it was 0.912; in the assay with Dasatinib + Navitoclax (first compound 0.005 µM) it was 0.818; with Dasatinib + Navitoclax (first compound 0.01581 µM), 0.707; with Dasatinib + Navitoclax (first compound 0.05 µM), 0.726. In addition, the relative viability turned out to be 0.253 in the assay with Dasatinib + Navitoclax (first compound 0.1581 µM) and 0.187 with Dasatinib + Navitoclax (first compound 0.5 µM).

HARA: the relative viability with XMD13-2 + Linsitinib (first compound 0.05 µM) was found to be 0.934; with XMD13-2 + Linsitinib (first compound 0.1581 µM) it was 0.931; in the assay with XMD13-2 + Linsitinib (first compound 0.5 µM), 0.944; in the assay with XMD13-2 + Linsitinib (first compound 1.581 µM), 0.972; in the assay with XMD13-2 + Linsitinib (first compound 5 µM) it was 1.07; with XMD13-2 + AZD7762 (first compound 0.05 µM) it was 0.301. Moreover, the relative viability in the assay with XMD13-2 + AZD7762 (first compound 0.1581 µM) stood at 0.557; with XMD13-2 + AZD7762 (first compound 0.5 µM), 0.263; with XMD13-2 + AZD7762 (first compound 1.581 µM) it was 0.376; with XMD13-2 + AZD7762 (first compound 5 µM), 0.37; with ALW-II-49-7 + Trametinib (first compound 0.08 µM), 1.02; with ALW-II-49-7 + Trametinib (first compound 0.253 µM) it was 0.513. Besides, the relative viability worked out at 0.794 in the assay with ALW-II-49-7 + Trametinib (first compound 0.8 µM); 0.64 in the assay with ALW-II-49-7 + Trametinib (first compound 2.53 µM); 0.675 with ALW-II-49-7 + Trametinib (first compound 8 µM); 1.15 with Dasatinib + Navitoclax (first compound 0.005 µM); 0.974 in the assay with Dasatinib + Navitoclax (first compound 0.01581 µM); 1 in the assay with Dasatinib + Navitoclax (first compound 0.05 µM). In addition, the relative viability with Dasatinib + Navitoclax (first compound 0.1581 µM) is 0.596; with Dasatinib + Navitoclax (first compound 0.5 µM) it was 0.326.

Consider NCI-H2126, for which the relative viability with XMD13-2 + Linsitinib (first compound 0.05 µM) came out at 0.697; in the assay with XMD13-2 + Linsitinib (first compound 0.1581 µM), 0.693; in the assay with XMD13-2 + Linsitinib (first compound 0.5 µM) it was 0.755; in the assay with XMD13-2 + Linsitinib (first compound 1.581 µM), 0.662; with XMD13-2 + Linsitinib (first compound 5 µM) it was 0.703; with XMD13-2 + AZD7762 (first compound 0.05 µM) it was 1.1. The relative viability came to 1.04 in the assay with XMD13-2 + AZD7762 (first compound 0.1581 µM); 0.98 with XMD13-2 + AZD7762 (first compound 0.5 µM); 1.04 with XMD13-2 + AZD7762 (first compound 1.581 µM); 0.996 with XMD13-2 + AZD7762 (first compound 5 µM); 0.595 with ALW-II-49-7 + Trametinib (first compound 0.08 µM); 0.561 in the assay with ALW-II-49-7 + Trametinib (first compound 0.253 µM). The relative viability came out at 0.541 with ALW-II-49-7 + Trametinib (first compound 0.8 µM); 0.526 with ALW-II-49-7 + Trametinib (first compound 2.53 µM); 0.574 with ALW-II-49-7 + Trametinib (first compound 8 µM); 0.868 with Dasatinib + Navitoclax (first compound 0.005 µM); 0.76 with Dasatinib + Navitoclax (first compound 0.01581 µM); 0.804 in the assay with Dasatinib + Navitoclax (first compound 0.05 µM). Besides, the relative viability came out at 0.621 with Dasatinib + Navitoclax (first compound 0.1581 µM) and 0.374 in the assay with Dasatinib + Navitoclax (first compound 0.5 µM).

As to HCC-827, the relative viability was found to be 0.873 in the assay with XMD13-2 + Linsitinib (first compound 0.05 µM); 0.9 with XMD13-2 + Linsitinib (first compound 0.1581 µM); 0.874 in the assay with XMD13-2 + Linsitinib (first compound 0.5 µM); 0.9 with XMD13-2 + Linsitinib (first compound 1.581 µM); 0.863 with XMD13-2 + Linsitinib (first compound 5 µM); 0.199 in the assay with XMD13-2 + AZD7762 (first compound 0.05 µM). The relative viability with XMD13-2 + AZD7762 (first compound 0.1581 µM) amounted to 0.22; in the assay with XMD13-2 + AZD7762 (first compound 0.5 µM) it was 0.207; with XMD13-2 + AZD7762 (first compound 1.581 µM), 0.202; with XMD13-2 + AZD7762 (first compound 5 µM) it was 0.224; in the assay with ALW-II-49-7 + Trametinib (first compound 0.08 µM), 0.534; in the assay with ALW-II-49-7 + Trametinib (first compound 0.253 µM), 0.526. The relative viability with ALW-II-49-7 + Trametinib (first compound 0.8 µM) stood at 0.525; with ALW-II-49-7 + Trametinib (first compound 2.53 µM) it was 0.475; with ALW-II-49-7 + Trametinib (first compound 8 µM), 0.462; in the assay with Dasatinib + Navitoclax (first compound 0.005 µM) it was 1.01; with Dasatinib + Navitoclax (first compound 0.01581 µM), 1.01; with Dasatinib + Navitoclax (first compound 0.05 µM), 1.01. The results for the relative viability with Dasatinib + Navitoclax (first compound 0.1581 µM) and in the assay with Dasatinib + Navitoclax (first compound 0.5 µM) were 0.719 and 0.188, respectively.

For BEN, the relative viability stood at 1.07 in the assay with XMD13-2 + Linsitinib (first compound 0.05 µM); 0.884 with XMD13-2 + Linsitinib (first compound 0.1581 µM); 0.963 with XMD13-2 + Linsitinib (first compound 0.5 µM); 0.866 in the assay with XMD13-2 + Linsitinib (first compound 1.581 µM); 0.898 in the assay with XMD13-2 + Linsitinib (first compound 5 µM); 0.799 with XMD13-2 + AZD7762 (first compound 0.05 µM). Moreover, the relative viability was 0.777 in the assay with XMD13-2 + AZD7762 (first compound 0.1581 µM); 0.638 with XMD13-2 + AZD7762 (first compound 0.5 µM); 0.594 with XMD13-2 + AZD7762 (first compound 1.581 µM); 0.729 with XMD13-2 + AZD7762 (first compound 5 µM); 1.08 with ALW-II-49-7 + Trametinib (first compound 0.08 µM); 1.03 with ALW-II-49-7 + Trametinib (first compound 0.253 µM). The relative viability in the assay with ALW-II-49-7 + Trametinib (first compound 0.8 µM) came out at 1.05; with ALW-II-49-7 + Trametinib (first compound 2.53 µM), 0.578; with ALW-II-49-7 + Trametinib (first compound 8 µM) it was 1.02; with Dasatinib + Navitoclax (first compound 0.005 µM), 0.0479; in the assay with Dasatinib + Navitoclax (first compound 0.01581 µM), 0.0657; with Dasatinib + Navitoclax (first compound 0.05 µM) it was 0.0572. The relative viability with Dasatinib + Navitoclax (first compound 0.1581 µM) was 0.0599; in the assay with Dasatinib + Navitoclax (first compound 0.5 µM), 0.0611.
